Reference: patent publication EP0268178A1, “Pyrrolo-benzimidazoles, medicaments containing these compounds and process for their preparation” (Dr. Karl Thomae GmbH, priority 1986, dated 1988)

Tested on: narkotisierten Katze
Assay: Blood-pressure-lowering and positive inotropic effect in the anaesthetised cat
Assay type: in vivo, Katzen
Details: mean of 2 cats; for diastol. Blutdruckänderung in mmHg: anaesthetised cats (Pentobarbital-Natrium), 0,3 mg/kg i.v., Aorta abdominalis; for Zunahme von dp/dt in %: dp/dt max from left ventricular pressure
Protocol: 1. Bestimmung der blutdrucksenkenden und ositiv inotropen Wirkung an der narkotisierten Katze:
Die Untersuchungen wurden an Katzen durchgeführt, die mit Pentobarbital-Natrium (40 mg/kg i.p. + 8 mg/kg/Stunde) narkotisiert waren. Die Tiere atmeten spontan. Der arterielle Blutdruck wurde in der Aorta abdominalis mit einem StathamDruckwandler (P 23 Dc) gemessen. Für die Erfassung der positiv inotropen Wirkung wurde mit einem Kathetertipmanometer (Millar PC-350 A) der Druck in der linken Herzkammer gemessen. Daraus wurde der Kontraktilitätsparameter dp/dt max mittels eines Analogdifferenzierers gewonnen. Die zu untersuchende Substanz wurde in eine Vena femoralis injiziert. Als Lösungsmittel diente Polydiol 200. Die Substanz wurde an 2 Katzen geprüft, Dosis 0,3 mg/kg i.v..

[1] = anaesthetised cats, 0,3 mg/kg i.v.

SMILES | diastol. Blutdruckänderung in mmHg [mmHg] | Wirkungsdauer (Halbwertszeit) [1] [Minuten] | Zunahme von dp/dt in % [1] | Zunahme der Herzfrequenz [1]
CCN1C(=O)C(C)(C)c2cc3[nH]c(-c4ocnc4C)nc3cc21 [D, 5-Äthyl-7,7-dimethyl-2-(4-methyl-oxazol-5-yl)-6,7-dihydro-3H,5H-pyrrolo[2,3-f]benzimidazol-B-on] | -31 | 7 | +50% | –
CCN1C(=O)C(C)(C)c2cc3[nH]c(-c4ccc(S(C)(=O)=O)cc4)nc3cc21 [C, 5-Äthyl-7,7-dimethyl-2-(4-methylsulfonyl-phenyl)-6,7-dihydro-3H,5H-pyrrolo[2,3-f]benzimidazol-6-on] | -16 | >60 | +91% | +12%
CCN1C(=O)C(C)(C)c2cc3[nH]c(-c4ccco4)nc3cc21 [B, 5-Äthyl-7,7-dimethyl-2-(2-furyl)-6,7-dihydro-3H,5H-pyrrolo[2,3-f]benzimidazol-6-on] | -31 | 26 | +49% | –
CCN1C(=O)C(C)(C)c2cc3[nH]c(-c4ccncc4)nc3cc21 [A, 5-Äthyl-7,7-dimethyl-2-(4-pyridyl)-6,7-dihyro-3H,5H-pyrrolo[2,3-f]benzimidazol-6-on] | -33 | >80 | +55% | –
